According to patent US11685741B2, “Fluorescent probes” (University of Massachusetts, priority 2017, dated 2023):

Legend:
[1] = Binding studies of sensor with Fe2+ (stoichiometry, affinity, reversibility); details: for binding constant: 1:1 sensor-Fe^2+ complex, H2O/THF pH 7.3 v/v 1:1
Description: The binding stoichiometry between the sensor Rh6GD and Fe^2+ was investigated by absorption and fluorescence titrations first. The sensor, Rh6GD has an absorption band at ˜420 nm (FIG. 26) which is due to the transition from S0 to S1 states (A. Chakraborty, et al., N. Chem. Phys., 2006, 324, 733) of the dimethylaminocinnamaldehyde moiety. […] Similar titrations were performed and were monitored by fluorescence spectroscopy.
The binding constant was estimated by using the absorption titration results. The equations below were used to calculate the binding constant for 2:1 complexes following a reported procedure (M. Guo, et al., Dalton Trans., 2007, 102, 4951). S+2L ? SL2 (1) The complex apparent binding constant is given by
[formula] Fc is the fraction of L that formed a complex; the subscripts e and o stand for equilibrium and initial concentrations, respectively. Au, Am, and Ac are the absorbances of solutions of L (before any Fe^2+ was added), during the titration, and at saturation, respectively. The concentration of free Fe^2+ at equilibrium, [S]e, is found with the following identity: [S]e=[S]o−[SL2]e[=S]o−Fc[L]o (4) Finally, the integrated apparent binding constant equation is shown in equation (5).
Reversibility experiments were carried out by adding the metal chelator EDTA to the Rh6GD-Fe^2+ complex in H2O/THF (pH 7.3, v/v 4:1). […]
Besides metal-selectivity, the binding constant, which describes the strength of binding between the sensor and metal cations, is also an important factor to be considered in bio-imaging. […] Job's method was applied to study the binding stoichiometry between Rh101D and Fe^2+ and monitored by the absorbance at 585 nm.
The binding constants were estimated by using the fluorescence titration results (FIG. 38). […]
The binding stoichiometry and the affinity between the sensor NIRh-Fret and Fe^2+ were investigated by UV-vis absorption titration. […] The binding constant for the formation of this complex was determined to be 2.9×10^6 M^−1 using a reported procedure (C. A. Perez, et al., J. Inorg. Biochem., 2009, 103, 326). […]

[2] = Effect of pH on fluorescence of sensor and its Fe complex; format: physicochemical; details: pH adjusted with HCl/NaOH
[3] = system: cells in the culture experiments; assay: Cell permeability and toxicity in the culture experiments; format: cell-based; details: for cell permeability: live cells in culture
[4] = Solubility of sensor noted in NMR studies; format: physicochemical; details: NMR sample solution
From the text: The binding site of Fe^2+ on Rh101D was investigated by 2D NMR. […] COSY NMR spectra are of sufficient resolution for the assignment of the peaks in the aromatic region (FIG. 44). After adding Fe^2+ to Rh101D, all the ^1H NMR signals were broadened.
In order to probe the binding site of Fe^2+ on the NIRh-Fret sensor, 1D and 2D ^1H NMR of the sensor NIRh-Fret was investigated first. […] The assignment of the ^1H NMR peaks was based on 2D ^1H-^1H COSY spectra.

| binding constant [1] [M⁻¹] | pH range over which sensor (and Fe complex) fluorescence is stable / working pH range [2] | solubility [4] | apparent binding constant ([1]; 2:1 sensor-Fe^2+ complex, absorption titration, H2O/THF pH 7.3 v/v 4:1) | pH range over which sensor (and Fe complex) fluorescence is stable / working pH range ([2]; listed as Rh-Pk) | Compound | cell permeability [3] | toxicity for cells ([3]; culture experiments) |
| --- | --- | --- | --- | --- | --- | --- | --- |
| 120000 | 9.5 to 4.5 | limited solubility | – | – | CN(C)c1ccc(/C=C/C=N/N2C(=O)c3ccccc3C23c2cc4c5c(c2Oc2c3cc3c6c2CCCN6CCC3)CCCN5CCC4)cc1 [Rh101D] | cell permeable | – |
| 2.9e+06 | ≥ 4.5 | limited solubility | – | – | CCN(CC)c1ccc2c(c1)OC1=C(CCC/C1=C\C=C1\N(C)c3ccccc3C1(C)C)C21c2ccccc2C(=O)N1/N=C\C=C\c1ccc(N(C)C)cc1 (stereo not shown) [NIRh-Fret, (E)-6′-(diethylamino)-2-(((1Z,2E)-3-(4-(dimethylamino)phenyl)allylidene)amino)-4′-(2-((E)-1,3,3-trimethylindolin-2-ylidene)ethylidene)-1′,2′,3′,4′-tetrahydrospiro[isoindoline-1,9′-xanthen]-3-one] | – | – |
| – | 9.3 to 4.5 | – | 1.8×10^11 M^−2 | – | CCNc1cc2c(cc1C)C1(c3cc(C)c(NCC)cc3O2)c2ccccc2C(=O)N1/N=C/C=C/c1ccc(N(C)C)cc1 [Rh6GD, 2-(((1E,2E)-3-(4-(dimethylamino)phenyl)allylidene)amino)-3′,6′-bis(ethylamino)-2′,7′-dimethylspiro[isoindoline-1,9′-xanthen]-3-one] | – | – |
| – | 4 to 9 | – | – | 4-9 | CCN(CC)c1ccc2c(c1)Oc1cc(N(CC)CC)ccc1C21c2ccccc2C(=O)N1CC/N=C(\C)c1cccc(C(C)=O)n1 [Rh-PK, (E)-2-(2-((1-(6-acetylpyridin-2-yl)ethylidene)amino)ethyl)-3′,6′-bis(diethylamino)spiro[isoindoline-1,9′-xanthen]-3-one] | excellent cell permeability | non-toxic |
